Measured values from ChEMBL document CHEMBL1154435, “Synthesis and anti-inflammatory activity evaluation of unsymmetrical selenides” (Eur J Med Chem, 2008).

Key:
Rattus norvegicus [1] = assay: Antiinflammatory activity against cotton pellets-induced inflammation in Wistar rat assessed as wet weight of granuloma at 10 mg/kg, po after 7 days; assay type: functional
Rattus norvegicus [2] = assay: Antiinflammatory activity against cotton pellets-induced inflammation in Wistar rat assessed as dry weight of granuloma at 10 mg/kg, po after 7 days; assay type: functional
Rattus norvegicus [3] = assay: Antiinflammatory activity against cotton pellets-induced inflammation in Wistar rat assessed as final weight of granuloma at 10 mg/kg, po after 7 days; assay type: functional
[4] = Acute toxicity in po dosed mouse assessed as death within 7 days; assay type: organism-based; conditions: in vivo
Mus musculus [5] = assay: Safety ratio for toxicity to antiinflammatory activity in po dosed mouse; assay type: functional
Mus musculus [6] = assay: Acute toxicity in mouse assessed as occurrence of ataxia and respiratory problems at 600 mg/kg, po within 7 days; assay type: organism-based; parameters: dose 600 mg/kg, route oral; conditions: in vivo, 168 h
Rattus norvegicus [7] = assay: Antiinflammatory activity against cotton pellets-induced inflammation in Wistar rat assessed as wet weight of granuloma at 5 mg/kg, po after 7 days; assay type: functional
Rattus norvegicus [8] = assay: Antiinflammatory activity against cotton pellets-induced inflammation in Wistar rat assessed as dry weight of granuloma at 5 mg/kg, po after 7 days; assay type: functional
Rattus norvegicus [9] = assay: Antiinflammatory activity against cotton pellets-induced inflammation in Wistar rat assessed as final weight of granuloma at 5 mg/kg, po after 7 days; assay type: functional

Row | Structure (SMILES) | Activity (Rattus norvegicus [1]) [g] | Activity (Rattus norvegicus [2]) [g] | Activity (Rattus norvegicus [3]) [mg] | LD50 at 168 h [4] [mg/kg] | Ratio (Mus musculus [5]) | Activity (Mus musculus [6]) | Activity (Rattus norvegicus [7]) [g] | Activity (Rattus norvegicus [8]) [g] | Activity (Rattus norvegicus [9]) [mg]
1 | O=C(O)C[Se]c1ccccc1C(=O)O | 0.378 | 0.085 | 33.8 | > 600 | >=60 |  |  |  | 
2 | C#CC[Se]c1ccccc1C(=O)O | 0.353 | 0.081 | 30.9 | 600 | >=60 | Toxic |  |  | 
3 | C#CC[Se]c1ccc(C(=O)NC)cc1 | 0.447 | 0.096 | 41.3 | > 600 | >=60 |  |  |  | 
4 | CNC(=O)c1ccc([Se]C=C(C)C)cc1 | 0.369 | 0.087 | 33.2 | 600 | >=60 | Toxic |  |  | 
5 | CC(C)=C[Se]c1ccccc1C(=O)O | 0.406 | 0.084 | 32.8 | > 600 | >=60 |  |  |  | 
6 | CNC(=O)c1ccc([Se]Cc2ccccc2)cc1 | 0.414 | 0.089 | 35.7 | > 600 | >=60 |  |  |  | 
7 | COc1ccc2c(c1)c(CC(=O)O)c(C)n2C(=O)c1ccc(Cl)cc1 [INDOMETHACIN] |  |  |  | 33 | 3.3 |  | 0.307 | 0.072 | 21.8
